11 compounds from patent publication US8729062B2, “Benzyl azetidine derivatives as sphingosine 1-phosphate (S1P) receptor modulators” (Allergan, Inc., priority 2010, dated 2014) can be followed below.

T1 sequence (P21453 whole entry): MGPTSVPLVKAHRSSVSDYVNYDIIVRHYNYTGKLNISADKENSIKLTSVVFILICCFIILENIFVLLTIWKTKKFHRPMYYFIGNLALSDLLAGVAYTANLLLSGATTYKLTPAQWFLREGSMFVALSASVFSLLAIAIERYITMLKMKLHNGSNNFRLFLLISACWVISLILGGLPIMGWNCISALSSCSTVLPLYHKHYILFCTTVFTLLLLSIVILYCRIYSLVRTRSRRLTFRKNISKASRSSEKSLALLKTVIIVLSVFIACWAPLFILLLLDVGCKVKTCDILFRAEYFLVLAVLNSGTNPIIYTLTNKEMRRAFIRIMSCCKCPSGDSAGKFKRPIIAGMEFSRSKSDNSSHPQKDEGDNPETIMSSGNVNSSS

The assay has as its target T1, human S1P1 receptor (Homo sapiens, UniProt P21453).
T1 construct: expressed in transfected cells; membranes used
Put plainly: GTP γ35S binding assay for S1P1 activity. The assay is classed as biochemical. The note with it: membranes of cells stably expressing S1P1 receptor, agonist potency, test range 0.08 to 5,000 nM. The protocol:
Compounds were synthesized and tested for S1P1 activity using the GTP γ^35S binding assay. These compounds may be assessed for their ability to activate or block activation of the human S1P1 receptor in cells stably expressing the S1P1 receptor.
GTP γ^35S binding was measured in the medium containing (mM) HEPES 25, pH 7.4, MgCl2 10, NaCl 100, dithitothreitol 0.5, digitonin 0.003%, 0.2 nM GTP γ^35S, and 5 μg membrane protein in a volume of 150 μl. Test compounds were included in the concentration range from 0.08 to 5,000 nM unless indicated otherwise. Membranes were incubated with 100 μM 5′-adenylylimmidodiphosphate for 30 min, and subsequently with 10 μM GDP for 10 min on ice. Drug solutions and membrane were mixed, and then reactions were initiated by adding GTP γ^35S and continued for 30 min at 25° C. Reaction mixtures were filtered over Whatman GF/B filters under vacuum, and washed three times with 3 mL of ice-cold buffer (HEPES 25, pH7.4, MgCl2 10 and NaCl 100). Filters were dried and mixed with scintillant, and counted for ^35S activity using a […]. Agonist-induced GTP γ^35S binding was obtained by subtracting that in the absence of agonist. Binding data were analyzed using a non-linear regression method. In case of antagonist assay, the reaction mixture contained 10 nM S1P in the presence of test antagonist at concentrations ranging from 0.08 to 5000 nM.
As usually defined, the EC50 is the concentration that produces a half-maximal response. A higher EC50 goes with lower potency in that assay. `Cc1ccc(CC(c2cc(F)cc(F)c2)c2nc(-c3ccc(CN4CC(C(=O)O)C4)cc3)no2)cc1C` (centres unmarked) [1-(4-{5-[1-(3,5-difluorophenyl)-2-(3,4-dimethylphenyl)ethyl]-1,2,4-oxadiazol-3-yl}benzyl)azetidine-3-carboxylic acid] came in with an EC50 of 0.0171 µM.
In the case of `O=C(O)C1CN(Cc2ccc(-c3noc(C(CC4CCCCC4)c4cccc(Cl)c4)n3)cc2)C1` (centres unmarked) [1-(4-{5-[1-(3-chlorophenyl)-2-cyclohexylethyl]-1,2,4-oxadiazol-3-yl}benzyl)azetidine-3-carboxylic acid] it was 1.24 µM; in that of `Cc1ccc(CC(c2cncc(Cl)c2)c2nc(-c3ccc(CN4CC(C(=O)O)C4)cc3)no2)cc1C` (centres unmarked) [1-(4-{5-[1-(5-chloropyridin-3-yl)-2-(3,4-dimethylphenyl)ethyl]-1,2,4-oxadiazol-3-yl}benzyl)azetidine-3-carboxylic acid], 0.0299 µM.
In turn, `Cc1ccc(CC(c2nc(-c3ccc(CN4CC(C(=O)O)C4)cc3)no2)c2cccs2)cc1C` (centres unmarked) [1-(4-{5-[2-(3,4-dimethylphenyl)-1-(2-thienyl)ethyl]-1,2,4-oxadiazol-3-yl}benzyl)azetidine-3-carboxylic acid] yielded an EC50 of 0.134 µM.
As for `Cc1cc(C)cc(C(Cc2ccc(C)c(C)c2)c2nc(-c3ccc(CN4CC(C(=O)O)C4)cc3)no2)c1` (centres unmarked) [1-(4-{5-[2-(3,4-dimethylphenyl)-1-(3,5-dimethylphenyl)ethyl]-1,2,4-oxadiazol-3-yl}benzyl)azetidine-3-carboxylic acid], the figure is 0.535 µM; as for `Cc1ccc(CC(c2ccsc2)c2nc(-c3ccc(CN4CC(C(=O)O)C4)cc3)no2)cc1C` (centres unmarked) [1-(4-{5-[2-(3,4-dimethylphenyl)-1-(3-thienyl)ethyl]-1,2,4-oxadiazol-3-yl}benzyl)azetidine-3-carboxylic acid], 0.0767 µM; as for `Cc1ccc(CC(c2nc(-c3ccc(CN4CC(C(=O)O)C4)cc3)no2)c2cccs2)cc1` (centres unmarked) [1-(4-{5-[2-(4-methylphenyl)-1-(2-thienyl)ethyl]-1,2,4-oxadiazol-3-yl}benzyl)azetidine-3-carboxylic acid], 0.209 µM.
As for `Cc1ccc(CC(c2ccsc2)c2nc(-c3ccc(CN4CC(C(=O)O)C4)cc3)no2)cc1` (centres unmarked) [1-(4-{5-[2-(4-methylphenyl)-1-(3-thienyl)ethyl]-1,2,4-oxadiazol-3-yl}benzyl)azetidine-3-carboxylic acid], the figure is 0.146 µM.
As for `Cc1ccc(CC(c2cccc(C(F)(F)F)c2)c2nc(-c3ccc(CN4CC(C(=O)O)C4)cc3)no2)cc1C` (centres unmarked) [1-[4-(5-{2-(3,4-dimethylphenyl)-1-[3-(trifluoromethyl)phenyl]ethyl}-1,2,4-oxadiazol-3-yl)benzyl]azetidine-3-carboxylic acid], the figure is 0.0893 µM.
Turning to `Cc1ccc(CC(c2cccc(Cl)c2)c2nc(-c3ccc(CN4CC(C(=O)O)C4)cc3)no2)cc1C` (centres unmarked) [Compound 1, 1-(4-{5-[1-(3-Chlorophenyl)-2-(3,4-dimethylphenyl)ethyl]-1,2,4-oxadiazol-3-yl}benzyl)azetidine-3-carboxylic acid], the EC50 was 0.00377 µM.
In the case of `Cc1ccc(CC(c2cccc(F)c2)c2nc(-c3ccc(CN4CC(C(=O)O)C4)cc3)no2)cc1C` (centres unmarked) [Compound 2, 1-(4-{5-[1-(3-fluorophenyl)-2-(3,4-dimethylphenyl)ethyl]-1,2,4-oxadiazol-3-yl}benzyl)azetidine-3-carboxylic acid] it was 0.0015 µM.
